Results as given in patent US9163256B2, “Mutant receptors and their use in a nuclear receptor-based inducible gene expression system” (priority 2004, dated 2015).

Experiments:
CfEcR-DEF mutant M54W = CfEcR-DEF mutant M54W (Choristoneura fumiferana, UniProt O77255, M337W); experiment: cell-based
Description: (§1) This construct was prepared in the same way as in switch 1.1 above except wild-type CfEcR-DEF was replaced with mutant CfEcR-DEF comprising a ligand binding domain comprising a substitution mutation selected from Table 1 below.
(§2) DNAs were transfected into mouse NIH3T3 cells (ATCC) as follows. Standard methods for culture and maintenance of the cells were followed. Cells were harvested and plated 96-well plates at 2,500 cells per well, in 50 μL of growth medium containing 10% fetal bovine serum (FBS). Twenty-four hours later, the cells were treated with 35 μL of serum-free growth medium containing either dimethylsulfoxide (DMSO; control) or a DMSO solution of ligand. The cells were then transfected using Superfect (Qiagen Inc.) transfection reagent. For each well, 0.625 μL of Superfect was mixed with 14.2 μL of serum-free growth medium. 0.16 μg of reporter construct and 0.04 μg of each receptor construct were added to the transfection reagent mix. The contents of the transfection mix were mixed in a vortex mixer and let stand at room temperature for 30 minutes. At the end of incubation, 15 μL of transfection mix was added to the cells. The cells were maintained at 37° C. and 5% CO2 for 48 hours in 5% FBS.
(§3) Reporter Assays: Cells were harvested 40 hours after adding ligands. 125 μL of passive lysis buffer (part of Dual-Luciferase reporter assay system from Promega Corporation) were added to each well of the […] plate. The plates were placed on a rotary shaker for 15 minutes. Twenty μL of lysate were assayed. Luciferase activity was measured using Dual-Luciferase reporter assay system from Promega Corporation following the manufacturer's instructions. Fold induction (FI) activities were calculated by dividing relative light units (“RLU”) in ligand treated cells with RLU in DMSO treated cells (untreated control).

CfEcR-DEF mutant Y120W = CfEcR-DEF mutant Y120W (Choristoneura fumiferana, UniProt O77255, Y403W); experiment: cell-based
Chain of CfEcR-DEF mutant Y120W (O77255 entry or part of it Y403W): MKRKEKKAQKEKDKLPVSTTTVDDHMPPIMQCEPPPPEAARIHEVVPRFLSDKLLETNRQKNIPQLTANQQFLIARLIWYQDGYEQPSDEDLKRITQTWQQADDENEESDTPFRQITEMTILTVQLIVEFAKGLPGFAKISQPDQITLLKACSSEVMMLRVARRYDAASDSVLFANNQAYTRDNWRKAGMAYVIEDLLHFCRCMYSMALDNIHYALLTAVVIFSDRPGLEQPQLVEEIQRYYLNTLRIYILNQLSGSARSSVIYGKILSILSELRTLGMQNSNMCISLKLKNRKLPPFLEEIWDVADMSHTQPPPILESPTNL
Chain of CfEcR-DEF mutant Y120W (P28702 299-449, further chain): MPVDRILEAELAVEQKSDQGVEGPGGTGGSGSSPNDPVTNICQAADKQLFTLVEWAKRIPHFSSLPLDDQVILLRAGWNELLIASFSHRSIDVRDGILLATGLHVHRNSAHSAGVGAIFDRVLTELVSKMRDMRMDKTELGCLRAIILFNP
Description: as §1, §2, §3

CfEcR-DEF mutant A110E = CfEcR-DEF mutant A110E (Choristoneura fumiferana, UniProt O77255, A393E); experiment: cell-based
Description: as §1, §2, §3

CfEcR-DEF mutant L234I = CfEcR-DEF mutant L234I (Choristoneura fumiferana, UniProt O77255, L517I); experiment: cell-based
Chain of CfEcR-DEF mutant L234I (P28702 299-449): as the sequence (P28702 299-449, further chain) above
Chain of CfEcR-DEF mutant L234I (O77255 entry or part of it L517I): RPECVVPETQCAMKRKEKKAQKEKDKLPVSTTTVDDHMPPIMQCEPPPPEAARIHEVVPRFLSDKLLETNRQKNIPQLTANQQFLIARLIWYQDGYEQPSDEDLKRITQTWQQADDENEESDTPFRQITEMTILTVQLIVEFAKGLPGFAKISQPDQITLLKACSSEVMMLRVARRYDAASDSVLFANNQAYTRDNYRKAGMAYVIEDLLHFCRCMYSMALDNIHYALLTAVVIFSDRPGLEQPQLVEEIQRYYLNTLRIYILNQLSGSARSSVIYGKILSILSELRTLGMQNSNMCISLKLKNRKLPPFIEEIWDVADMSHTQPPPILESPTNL
Description: as §1, §2, §3

CfEcR-DEF mutant L234M = CfEcR-DEF mutant L234M (Choristoneura fumiferana, UniProt O77255, L517M); experiment: cell-based
Description: as §1, §2, §3

CfEcR-DEF mutant A110W = CfEcR-DEF mutant A110W (Choristoneura fumiferana, UniProt O77255, A393W); experiment: cell-based
Description: as §1, §2, §3

CfEcR-DEF mutant T52E = CfEcR-DEF mutant T52E (Choristoneura fumiferana, UniProt O77255, T335E); experiment: cell-based
Chain of CfEcR-DEF mutant T52E (O77255 entry or part of it T335E): as the sequence (O77255 entry or part of it Y403W) above, with T117E, W185Y counted along it
Chain of CfEcR-DEF mutant T52E (P28702 299-449, further chain): as the sequence (P28702 299-449, further chain) above
Description: as §1, §2, §3

CfEcR-DEF mutant F48L = CfEcR-DEF mutant F48L (Choristoneura fumiferana, UniProt O77255, F331L); experiment: cell-based
Description: as §1, §2, §3

CfEcR-DEF mutant R95M = CfEcR-DEF mutant R95M (Choristoneura fumiferana, UniProt O77255, R378M); experiment: cell-based
Description: as §1, §2, §3

CfEcR-DEF mutant M92L = CfEcR-DEF mutant M92L (Choristoneura fumiferana, UniProt O77255, M375L); experiment: cell-based
Chain of CfEcR-DEF mutant M92L (O77255 entry or part of it M375L): as the sequence (O77255 entry or part of it Y403W) above, with M157L, W185Y counted along it
Chain of CfEcR-DEF mutant M92L (P28702 299-449, further chain): as the sequence (P28702 299-449, further chain) above
Description: as §1, §2, §3

CfEcR-DEF mutant V96S = CfEcR-DEF mutant V96S (Choristoneura fumiferana, UniProt O77255, V379S); experiment: cell-based
Chain of CfEcR-DEF mutant V96S (O77255 entry or part of it V379S): as the sequence (O77255 entry or part of it Y403W) above, with V161S, W185Y counted along it
Chain of CfEcR-DEF mutant V96S (P28702 299-449, further chain): as the sequence (P28702 299-449, further chain) above
Description: as §1, §2, §3

[1] = biological target: CfEcR-DEF mutant N119F/V96T (Choristoneura fumiferana, UniProt O77255, N402F/V379T); experiment: cell-based
Chain of CfEcR-DEF mutant N119F/V96T (O77255 entry or part of it V379T/N402F): as the sequence (O77255 entry or part of it Y403W) above, with V161T, N184F, W185Y counted along it
Chain of CfEcR-DEF mutant N119F/V96T (P28702 299-449, further chain): as the sequence (P28702 299-449, further chain) above
Description: as §1, §2, §3

CfEcR-DEF mutant V96L = CfEcR-DEF mutant V96L (Choristoneura fumiferana, UniProt O77255, V379L); experiment: cell-based
Chain of CfEcR-DEF mutant V96L (O77255 entry or part of it V379L): as the sequence (O77255 entry or part of it Y403W) above, with V161L, W185Y counted along it
Chain of CfEcR-DEF mutant V96L (P28702 299-449, further chain): as the sequence (P28702 299-449, further chain) above
Description: as §1, §2, §3

[2] = biological target: CfEcR-DEF mutant V107I/Y127E/A110P (Choristoneura fumiferana, UniProt O77255, A393P/V390I/Y410E); experiment: cell-based
Chain of CfEcR-DEF mutant V107I/Y127E/A110P (P28702 299-449, stated change not applied): as the sequence (P28702 299-449, further chain) above
Chain of CfEcR-DEF mutant V107I/Y127E/A110P (O77255 entry or part of it V390I/A393P/Y410E): as the sequence (O77255 entry or part of it Y403W) above, with V172I, A175P, W185Y, Y192E counted along it
Description: as §1, §2, §3

CfEcR-DEF mutant F109L = CfEcR-DEF mutant F109L (Choristoneura fumiferana, UniProt O77255, F392L); experiment: cell-based
Description: as §1, §2, §3

CfEcR-DEF mutant M92E = CfEcR-DEF mutant M92E (Choristoneura fumiferana, UniProt O77255, M375E); experiment: cell-based
Description: as §1, §2, §3

CfEcR-DEF mutant M54T = CfEcR-DEF mutant M54T (Choristoneura fumiferana, UniProt O77255, M337T); experiment: cell-based
Chain of CfEcR-DEF mutant M54T (O77255 entry or part of it M337T): as the sequence (O77255 entry or part of it L517I) above, with M131T, I311L counted along it
Chain of CfEcR-DEF mutant M54T (P28702 299-449, further chain): as the sequence (P28702 299-449, further chain) above
Description: as §1, §2, §3

CfEcR-DEF mutant M125R = CfEcR-DEF mutant M125R (Choristoneura fumiferana, UniProt O77255, M408R); experiment: cell-based
Description: as §1, §2, §3

[3] = biological target: CfEcR-DEF mutant V107I/Y127E/G (Choristoneura fumiferana, UniProt O77255, INS541G/V390I/Y410E); experiment: GAL4-driven luciferase reporter assay in NIH3T3 cells; format: cell-based
Description: as §1
The Gal-4-CfEcR-DEF(VYG) mutant was created by inserting an extra glycine at the C-terminal end of EcR substitution mutant V107I/Y127E [CfECR(VY)] by PCR. Essentially, this was done in two steps: PCR-amplification of CfEcR-DEF(VYG) and substitution of the CfEcR(VY) in the vector GAL4-CfEcR DEF(VY) pBIND 1-9 with the PCR-amplified CfEcR-DEF(VYG). The CfEcR-DEF region (with the extra glycine) was amplified by using the vector GAL4-CfEcR DEF(VY) pBIND 1-9 as template and the following PCR primers: […]
as §2, §3

[4] = NIH3T3, 40 h, read-out: Rel Max FI
[5] = NIH3T3, mouse, 40 h, read-out: GS-E ligand max FI (relative to DMSO)

## CCc1c(OC)cccc1C(=O)NN(C(=O)c1cc(C)cc(C)c1)C(C)(C)C [RG-102240, N-(2-ethyl-3-methoxybenzoyl)-N′-(3,5-dimethylbenzoyl)-N′-tert-butylhydrazine]
CfEcR-DEF mutant M54W
  EC50: 1170 nM
CfEcR-DEF mutant M54W; [4]
  Emax: 100%
CfEcR-DEF mutant M54W; [5]
  maximal fold induction: 1680
CfEcR-DEF mutant M54W; mutant M54W, GS-E ligand
  Concentration (mM) at max FI: 0.01 mM
CfEcR-DEF mutant Y120W
  EC50: 4210 nM
CfEcR-DEF mutant Y120W; [4]
  Emax: 100%
CfEcR-DEF mutant Y120W; [5]
  maximal fold induction: 1890
CfEcR-DEF mutant A110E
  EC50: 590 nM
CfEcR-DEF mutant A110E; [4]
  Emax: 100%
CfEcR-DEF mutant A110E; [5]
  maximal fold induction: 4930
CfEcR-DEF mutant A110E; mutant A110E, GS-E ligand
  Concentration (mM) at max FI: 10.00 mM
CfEcR-DEF mutant L234I
  EC50: 770 nM
CfEcR-DEF mutant L234I; [4]
  Emax: 100%
CfEcR-DEF mutant L234I; [5]
  maximal fold induction: 2650
CfEcR-DEF mutant L234I; mutant L234I, GS-E ligand
  Concentration (mM) at max FI: 10 mM
CfEcR-DEF mutant L234M
  EC50: 1430 nM
CfEcR-DEF mutant L234M; [4]
  Emax: 100%
CfEcR-DEF mutant L234M; [5]
  maximal fold induction: 4580
CfEcR-DEF mutant L234M; mutant L234M, GS-E ligand
  Concentration (mM) at max FI: 33.30 mM
CfEcR-DEF mutant A110W
  EC50: 1370 nM
CfEcR-DEF mutant A110W; [4]
  Emax: 100%
CfEcR-DEF mutant A110W; [5]
  maximal fold induction: 5210
CfEcR-DEF mutant A110W; mutant A110W, GS-E ligand
  Concentration (mM) at max FI: 10.00 mM
CfEcR-DEF mutant T52E
  EC50: ~7000 nM
CfEcR-DEF mutant T52E; [4]
  Emax: 100%
CfEcR-DEF mutant T52E; [5]
  maximal fold induction: 1540
CfEcR-DEF mutant T52E; mutant T52E, GS-E ligand
  Concentration (mM) at max FI: 33.3 mM
CfEcR-DEF mutant F48L
  EC50: 460 nM
CfEcR-DEF mutant F48L; [4]
  Emax: 100%
CfEcR-DEF mutant F48L; [5]
  maximal fold induction: 2600
CfEcR-DEF mutant F48L; mutant F48L, GS-E ligand
  Concentration (mM) at max FI: 0.0333 mM
CfEcR-DEF mutant R95M
  EC50: 2760 nM
CfEcR-DEF mutant R95M; [4]
  Emax: 100%
CfEcR-DEF mutant R95M; [5]
  maximal fold induction: 1690
CfEcR-DEF mutant R95M; mutant R95M, GS-E ligand
  Concentration (mM) at max FI: 33.30 mM
CfEcR-DEF mutant M92L
  EC50: ~8000 nM
CfEcR-DEF mutant M92L; [4]
  Emax: 100%
CfEcR-DEF mutant M92L; [5]
  maximal fold induction: 1200
CfEcR-DEF mutant M92L; mutant M92L, GS-E ligand
  Concentration (mM) at max FI: 33.30 mM
CfEcR-DEF mutant V96S
  EC50: 1140 nM
CfEcR-DEF mutant V96S; [4]
  Emax: 100%
CfEcR-DEF mutant V96S; [5]
  maximal fold induction: 1830
CfEcR-DEF mutant V96S; mutant V96S, GS-E ligand
  Concentration (mM) at max FI: 33.3 mM
[1]
  EC50: ~8000 nM
[1]; [4]
  Emax: 100%
[1]; [5]
  maximal fold induction: 1740
[1]; mutant N119F/V96T, GS-E ligand
  Concentration (mM) at max FI: 33.3 mM
CfEcR-DEF mutant V96L
  EC50: ~1000 nM
CfEcR-DEF mutant V96L; [4]
  Emax: 100%
CfEcR-DEF mutant V96L; [5]
  maximal fold induction: 4380
CfEcR-DEF mutant V96L; mutant V96L, GS-E ligand
  Concentration (mM) at max FI: 10 mM
[2]
  EC50: 300 nM
[2]; [4]
  Emax: 100%
[2]; [5]
  maximal fold induction: 2210
[2]; mutant V107I/Y127E/A110P, GS-E ligand
  Concentration (mM) at max FI: 10 mM
CfEcR-DEF mutant F109L
  EC50: ~2000 nM
CfEcR-DEF mutant F109L; [4]
  Emax: 100%
CfEcR-DEF mutant F109L; [5]
  maximal fold induction: 20
CfEcR-DEF mutant F109L; mutant F109L, GS-E ligand
  Concentration (mM) at max FI: 33.30 mM
CfEcR-DEF mutant M92E
  EC50: ~8000 nM
CfEcR-DEF mutant M92E; [4]
  Emax: 100%
CfEcR-DEF mutant M92E; [5]
  maximal fold induction: 141
CfEcR-DEF mutant M92E; mutant M92E, GS-E ligand
  Concentration (mM) at max FI: 0.0333 mM
CfEcR-DEF mutant M54T
  EC50: 80 nM
CfEcR-DEF mutant M54T; [4]
  Emax: 100%
CfEcR-DEF mutant M54T; [5]
  maximal fold induction: 4460
CfEcR-DEF mutant M54T; mutant M54T, GS-E ligand
  Concentration (mM) at max FI: 10.00 mM
CfEcR-DEF mutant M125R
  EC50: 3700 nM
CfEcR-DEF mutant M125R; [4]
  Emax: 0%
CfEcR-DEF mutant M125R; [5]
  maximal fold induction: 2410
CfEcR-DEF mutant M125R; mutant M125R, GS-E ligand
  Concentration (mM) at max FI: 33.3 mM
[3]
  EC50: 170 nM
[3]; [4]
  Emax: 100%
